This note sets out measurements from patent publication US20240391877A1, “COMPOUND AS INHIBITOR OF COMPLEMENT FACTOR D, AND PHARMACEUTICAL COMPOSITION AND USE THEREOF” (WUHAN CREATERNA SCIENCE AND TECHNOLOGY CO.,LTD., priority 2021, published 2024).

The subject of experiment [1] is hemolysis of rabbit erythrocytes. The experiment can be described thus: Rabbit erythrocyte hemolysis assay to evaluate inhibitory activity on the bypass pathway. It counts as cell-based. The settings on record: Oryctolagus cuniculus, 0.5 h, 48% NHP or 26.4% NHS, 37° C. 30 min, absorbance 415 nm. The source says: 2. Rabbit Erythrocyte Hemolysis Assay to Evaluate the Inhibitory Activity of Compounds on the Bypass Pathway
Normal Human Serum, NHS (collected from healthy people), Normal Human Plasma, NHP (Shanghai Yuduo), 96-well ELISA plate (Jet Biofil), Japanese big-eared white rabbit (Wuhan WQJX), Alsever's solution (Procell), centrifuge (Thermo, PICO17), thermostatic shaker (Shanghai Fuma), destaining shaker (Beijing Liuyi), cell counter (Invitrogen, Counter Countess II) (GVB^o, EGTA, MgCl2, NaOH, microplate reader, microplate thermostatic shaker, and pipette are equivalent to those in the experiment 1).
48% NHP: 100% NHP was diluted to 48% with buffer;
26.4% NPS: 100% NHS was diluted to 26.4% with buffer;
rabbit erythrocyte suspension: blood was taken from rabbit ear marginal vein, anticoagulated with Alsever's solution at a ratio of 1:1, stored in portions at 4° C., and could be stored for 4 weeks. Before use, the suspension was centrifuged at 500 g for 5 min to discard the Alsever's solution, washed three times with an equal volume of buffer and centrifuged at 500 g for 5 min, and finally the density was adjusted to 6×10^8 cells/mL with buffer.
In the 96-well ELISA plate, the experimental group was added with 50 μL of 48% NHP or 26.4% NHS and 50 μL of compound solution; the positive control group was added with 50 μL of 48% NHP or 26.4% NHS and 50 μL of buffer containing 0.2% DMSO; the blank control group was added with 50 μL of 48% inactivated NHP or 26.4% inactivated NHS and 0.2% DMSO buffer; the H2O group was added with 100 μL of double-distilled water; incubated at 37° C. for 15 min; 20 μL of rabbit erythrocyte suspension was added to each well and incubated on a shaker at 37° C. for 30 min; centrifuged at 2000 g (3380 rpm) for 5 min, and […] of supernatant was transferred to a new 96-well ELISA plate, and the absorbance was detected at 415 nm.
The PC group represents 100% hemolysis, and the NC group represents 0% hemolysis.
IC50: half-maximal inhibitory concentration. Data were collected to calculate the log value of hemolysis percentage versus compound concentration, and IC50 values were calculated using GraphPad Prism software.

The target of experiment [2] is T1, complement factor D (Homo sapiens, UniProt P00746).
T1 construct: purchased Complement tech
T1 sequence (P00746 26-253): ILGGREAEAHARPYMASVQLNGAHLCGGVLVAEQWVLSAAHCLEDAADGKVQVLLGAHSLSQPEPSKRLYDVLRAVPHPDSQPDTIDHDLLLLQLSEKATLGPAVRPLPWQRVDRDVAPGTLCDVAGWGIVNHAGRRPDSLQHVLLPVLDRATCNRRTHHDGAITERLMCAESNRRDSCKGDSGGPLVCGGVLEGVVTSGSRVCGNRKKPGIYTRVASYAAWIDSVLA
The experiment is described as follows: Complement factor D inhibitory activity (C3b method) in vitro screening; product Bb detected by ELISA. In kind it is biochemical. Conditions: factor D + factor B + factor C3b, 37° C., Bb by MicroVue Bb Plus ELISA. The source says:
1. Complement Factor D Inhibitory Activity (C3b Method) In Vitro Screening Experiment
V-bottom plate (AXYGEN), DMSO (Sigma), MicroVue Bb Plus ELISA kit (Quidel), complement factor C3b (abbreviated as factor C3b, Complement tech), complement factor B (abbreviated as factor B, Complement tech), complement factor D (abbreviated as factor D, Complement tech), EDTA (MACKLIN), GVB^o (Complement tech), EGTA (Aladdin), MgCl2 (Aladdin), NaOH (Sinopharm), microplate reader (Molecular Devices, SpectraMax i3x), microplate thermostatic shaker (Thermo, MB100-2A), pipette (Gilson)
0.1 M Mg-EGTA: 3.8 g of EGTA, 0.9521 g of MgCl2, and 0.7 g of NaOH were weighed, and the pH was adjusted to 7.5 with NaOH. Distilled water was added to make up to 100 mL, and the mixture was filtered with a […] sterile needle filter, stored in portions at 4° C.
Buffer: 0.1 M Mg-EGTA solution was diluted 10-fold to 10 mM with GVB^o buffer; • factor B working solution: 1 mg/mL factor B solution (10.75 μM) was diluted 6.7-fold to 1.6 μM with buffer; • factor C3b working solution: 1 mg/mL factor C3b solution (5.68 μM) was diluted 5-fold to […] with buffer; • factor D working solution: 0.1 mg/mL factor D solution (4.17 μM) was diluted 1303-fold to 3.2 nM with buffer.
Note: a. The above dilution multiples are for reference only and are adjusted according to the true concentration labeled on the reagent; • b. factor B: 93 KDa, factor D: 24 KDa, factor C3b: 176 KDa.
Stop solution: An appropriate amount of EDTA powder was weighed, dissolved in a certain amount of GVB^o buffer, and the pH was adjusted to 7.5 with NaOH. The mixture was stirred until clear and prepared into a 10 mM solution.
Compound stock solution: 40 mM compound solution was diluted with DMSO into 1 mM stock solution, and the 1 mM stock solution was diluted 3-fold with DMSO at 8 points to prepare compound stock solutions of various concentrations.
Compound working solution: diluted 250-fold with buffer to obtain compound solutions of various concentrations.
In the V-bottom plate, the experimental group was added with 10 μL of factor D solution and 10 μL of compound solution; the positive control group was added with 10 μL of factor D solution and buffer containing 0.4% DMSO; the blank control group was added with […] containing 0.2% DMSO; incubated at 37° C. for 15 min; the factor B working solution and the factor C3b working solution were mixed homogeneously at a ratio of 1:1; 20 µL of the mixture was added to each well and incubated at 37° C. for 30 min; the reaction was stopped by adding 40 μL of stop solution; the production of product Bb was detected by MicroVue Bb Plus ELISA kit.
1.4.1 The required wells of the ELISA plate were taken out and allowed to return to room temperature, and the remaining ones were repackaged and stored at 4° C.;
1.4.2 the wells were washed twice with 300 μL of 1× wash buffer, and incubated for 1 min at 25° C. for the first wash;
1.4.3 samples were diluted 8-fold with complement specimen diluent, and 100 μL of sample was added to each well and incubated at 25° C. for 30 min;
1.4.4 the liquid in the wells was discarded, and the wells were washed 5 times with 300 μL of 1× wash buffer, and incubated at room temperature for 1 min for the first wash;
1.4.5 50 μL of Bb Plus Conjugate was added to each well and incubated at 25° C. for 30 min;
1.4.6 the liquid in the wells was discarded, and the wells were washed 5 times with 300 μL of 1× wash buffer, and incubated at room temperature for 1 min for the first wash;
1.4.7 100 μL of […] (Substrate Solution) was added to each well and incubated at 25° C. for 15 min;
1.4.8 100 μL of stop solution was added to each well, and the absorbance was detected at 450 nm within 30 min.
1.5.1 Inhibition rate of each drug concentration:
The PC group represents 0% inhibition rate, and the NC group represents 100% inhibition rate. […]
A general note: An ELISA detects its analyte on a solid surface through an enzyme-linked reagent.

The structures appear in SMILES notation.

As a reminder, the IC50 is the point on the concentration scale where inhibition reaches its midpoint. In the case of `NCc1cccc(-c2cc(COc3ccccc3CC(=O)O)cc(N3CCCC4(CC4)C3)c2)c1` [Compound 004, 2-(2-((3′-(aminomethyl)-5-(5-azaspiro[2.5]octan-5-yl)-[1,1′-biphenyl]-3-yl)methoxy)phenyl)acetic acid], the IC50 in experiment [1] turned out to be 36 nM; in experiment [2], 19 nM.

As for `NCc1cccc(-c2cc(COc3ccccc3CC(=O)O)cc(N3CC4CCC(C4)C3)c2)c1` [Compound 006, 2-(2-((3′-(aminomethyl)-5-(3-azabicyclo[3.2.1]octan-3-yl)-′[1,1′-biphenyl]-3-yl)methoxy)phenyl)acetic acid], the IC50 stood at 54 nM in experiment [1] and 4 nM in experiment [2].

With `NCc1cc(F)cc(-c2cc(COc3ccccc3CC(=O)O)cc(N3CCC4(CC3)CC4)c2)c1` [Compound 008, 2-(2-((3′-(aminomethyl)-5′-fluoro-5-(6-azaspiro[2.5]octan-6-yl)-[1,1′-biphenyl]-3-yl)methoxy)phenyl)acetic acid], the IC50 in experiment [1] amounted to 196 nM; in experiment [2] it was 18 nM.

In the case of `NCc1cccc(-c2cc(COc3ccccc3CC(=O)O)cc(N3CCC4(CC3)COC4)c2)c1` [Compound 011, 2-(2-((3′-(aminomethyl)-5-(2-oxa-7-azaspiro[3.5]nonan-7-yl)-[1,1′-biphenyl]-3-yl)methoxy)phenyl)acetic acid], the results for the IC50 in experiment [1] and in experiment [2] were 13 nM and 18 nM, respectively.

Take `NCc1cccc(-c2cc(COc3ccccc3CC(=O)O)cc(N3CCC4(CCO4)CC3)c2)c1` [Compound 012, 2-(2-((3′-(aminomethyl)-5-(1-oxa-7-azaspiro[3.5]nonan-7-yl)-[1,1′-biphenyl]-3-yl)methoxy)phenyl)acetic acid]: the IC50 worked out at 4 nM in experiment [1] and 6 nM in experiment [2].

On to `NCc1cccc(-c2cc(COc3ccccc3CC(=O)O)cc(N3CCC4(CC3)CC(O)C4)c2)c1` [Compound 013, 2-(2-((3′-(aminomethyl)-5-(2-hydroxy-7-azaspiro[3.5]nonan-7-yl)-[1,1′-biphenyl]-3-yl)methoxy)phenyl)acetic acid], for which the IC50 came to 28 nM in experiment [1] and 11 nM in experiment [2].

As to `NCc1cccc(-c2cc(COc3ccccc3CC(=O)O)cc(N3CCC4(CCOC4)CC3)c2)c1` [Compound 014, 2-(2-((3′-(aminomethyl)-5-(2-oxa-8-azaspiro[4.5]decan-8-yl)-[1,1′-biphenyl]-3-yl)methoxy)phenyl)acetic acid], the IC50 was 10 nM in experiment [1] and 14 nM in experiment [2].

`NCc1cccc(-c2cc(COc3ccccc3CC(=O)O)cc(N3CCOC4(CC4)C3)c2)c1` [Compound 016, 2-(2-((3′-(aminomethyl)-5-(4-oxa-7-azaspiro[2.5]octan-7-yl)-[1,1′-biphenyl]-3-yl)methoxy)phenyl)acetic acid]: the IC50 in experiment [1] was found to be 19 nM; in experiment [2], 26 nM.

As to `NCc1cccc(-c2cc(COc3ccccc3CC(=O)O)cc(N3CC4(CCCC4)C3)c2)c1` [Compound 017, 2-(2-((3′-(aminomethyl)-5-(2-azaspiro[3.4]octan-2-yl)-[1,1′-biphenyl]-3-yl)methoxy)phenyl)acetic acid], the IC50 was 65 nM in experiment [1] and 6 nM in experiment [2].

Regarding `NCc1cccc(-c2cc(COc3cc(F)ccc3CC(=O)O)cc(N3CCC4(CC3)CC4)c2)c1F` [Compound 021, 2-(2-((3′-(aminomethyl)-2′-fluoro-5-(6-azaspiro[2.5]octan-6-yl)-[1,1′-biphenyl]-3-yl)methoxy)-4-fluorophenyl)acetic acid], the 50% inhibitory concentration (IC50) in experiment [1] was 65 nM; in experiment [2], 11 nM.

`NCc1cccc(-c2cc(COc3ccccc3CC(=O)O)cc(N3CCC4(CC3)COC4)c2)c1F` [Compound 024, 2-(2-((3′-(aminomethyl)-2′-fluoro-5-(2-oxa-7-azaspiro[3.5]nonan-7-yl)-[1,1′-biphenyl]-3-yl)methoxy)phenyl)acetic acid]: the IC50 was 27 nM in experiment [1] and 4 nM in experiment [2].

In the case of `NCc1cccc(-c2cc(COc3ccc(F)cc3CC(=O)O)cc(N3CCC4(CC3)COC4)c2)c1F` [Compound 025, 2-(2-((3′-(aminomethyl)-2′-fluoro-5-(2-oxa-7-azaspiro[3.5]nonan-7-yl)-[1,1′-biphenyl]-3-yl)methoxy)-5-fluorophenyl)acetic acid], the IC50 in experiment [1] came out at 12 nM; in experiment [2], 7 nM.

As for `NCc1cccc(-c2cc(COc3ccccc3CC(=O)O)cc(N3CCC4(CCOCC4)CC3)c2)c1` [Compound 029, 2-(2-((3′-(aminomethyl)-5-(3-oxa-9-azaspiro[5.5]undecan-9-yl)-[1,1′-biphenyl]-3-yl)methoxy)phenyl)acetic acid], the IC50 in experiment [1] came to 10 nM; in experiment [2], 6 nM.

Take `NCc1cccc(-c2cc(COc3ccccc3CC(=O)O)cc(N3CCC4(CCCOC4)CC3)c2)c1` [Compound 030, 2-(2-((3′-(aminomethyl)-5-(2-oxa-9-azaspiro[5.5]undecan-9-yl)-[1,1′-biphenyl]-3-yl)methoxy)phenyl)acetic acid]: the figures for the IC50 in experiment [1] and in experiment [2] were 22 nM and 4 nM, respectively.

In the case of `NCc1cccc(-c2cc(COc3ccccc3CC(=O)O)cc(N3CC4(CCOC4)C3)c2)c1` [Compound 031, 2-(2-((3′-(aminomethyl)-5-(6-oxa-2-azaspiro[3.4]octan-2-yl)-[1,1′-biphenyl]-3-yl)methoxy)phenyl)acetic acid], the IC50 stood at 6 nM in experiment [1] and 3 nM in experiment [2].

As to `CN1CC2(CCN(c3cc(COc4ccccc4CC(=O)O)cc(-c4cccc(CN)c4)c3)CC2)C1` [Compound 032, 2-(2-((3′-(aminomethyl)-5-(2-methyl-2,7-diazaspiro[3.5]nonan-7-yl)-[1,1′-biphenyl]-3-yl)methoxy)phenyl)acetic acid], the IC50 stood at 8 nM in experiment [1] and 10 nM in experiment [2].
